Each structure is given as a SMILES string. Bridge positions count the residues as written; N and C are the ends. Square brackets hold non-standard residues; d marks the D form. Peptide text beside a SMILES is read from it. * marks the point of attachment. Phe(4-COOH) = N[C@@H](Cc1ccc(C(=O)O)cc1)C(=O)O; Bip = N[C@@H](Cc1ccc(-c2ccccc2)cc1)C(=O)O; Phe(3-Me) = Cc1cccc(C[C@H](N)C(=O)O)c1; Val(3-OH) = CC(C)(O)[C@H](N)C(=O)O; 4Pal = N[C@@H](Cc1ccncc1)C(=O)O; Cha = N[C@@H](CC1CCCCC1)C(=O)O; Carboxymethyl = O=C(O)C*; NMeA = CN[C@@H](C)C(=O)O; Nle = CCCC[C@H](N)C(=O)O; Pra = C#CC[C@H](N)C(=O)O; Dab = NCC[C@H](N)C(=O)O; Dap = NC[C@H](N)C(=O)O

T1 sequence (Q15116 25-288): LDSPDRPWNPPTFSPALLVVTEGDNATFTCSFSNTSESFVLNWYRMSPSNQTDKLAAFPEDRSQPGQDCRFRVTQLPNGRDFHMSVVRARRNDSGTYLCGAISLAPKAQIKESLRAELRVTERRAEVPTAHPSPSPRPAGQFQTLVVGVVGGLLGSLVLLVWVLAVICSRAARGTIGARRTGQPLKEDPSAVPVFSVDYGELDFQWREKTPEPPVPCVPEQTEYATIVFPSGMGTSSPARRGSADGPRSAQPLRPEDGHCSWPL

This experiment concerns the target T1, PE-labeled human PD-L1-Ig binding to Jurkat cell line over-expressing human PD-1 (Jurkat-PD-1) (Homo sapiens, UniProt Q15116).
T1 construct: expressed in transfected cells; host or cells: Jurkat
Put plainly: Jurkat-PD-1 Cell Binding High-Content Screening Assay (CBA): Method 1. Particulars: Jurkat-hPD-1 cells, PE-labeled PD-L1-Ig 20 nM final; read-out: Jurkat HPDL1 PD1 IC50 (uM) (Method 1).
In the case of `CC(C)C[C@H]1NC(=O)[C@H](C)N(C)C(=O)[C@H](CCCNC(=N)N)NC(=O)[C@H](Cc2ccc(-c3ccccc3)cc2)NC(=O)[C@H](C(C)C)NC(=O)[C@H](Cc2c[nH]c3ccccc23)NC(=O)[C@H](CC(=O)O)NC(=O)[C@H](Cc2ccc(O)cc2)NC(=O)[C@H](CC(N)=O)NC(=O)CSC[C@@H](C(=O)N[C@@H](C)C(N)=O)NC(=O)[C@H]([C@@H](C)O)NC(=O)[C@H](C(C)C)NC(=O)[C@H](CC2CCCCC2)NC(=O)[C@H](CCN)NC1=O` [Compound 1284] ({CH2CO}-NYDWV[Bip]R[NMeA][dL][Dab][Cha]VTCA-NH2; thioether N-14), the IC50 (usually the concentration needed to halve the response being measured) worked out at 0.01 µM. Regarding `CC(C)C[C@@H]1NC(=O)[C@H](Cc2c[nH]c3ccccc23)NC(=O)[C@H](CC(=O)O)NC(=O)[C@H](Cc2ccc(O)cc2)NC(=O)[C@H](Cc2ccccc2)NC(=O)CSC[C@@H](C(=O)NCC(N)=O)NC(=O)[C@H](CO)NC(=O)[C@H](C(C)C)NC(=O)[C@H](CC(C)C)NC(=O)[C@H](CCN)NC(=O)[C@@H](CC(C)C)NC(=O)[C@H](C)N(C)C(=O)[C@H](C(C)C)NC(=O)[C@H](Cc2ccc(-c3ccccc3)cc2)NC1=O` [Compound 1472] ({CH2CO}-FYDWL[Bip]V[NMeA][dL][Dab]LVSCG-NH2; thioether N-14), the concentration for half-maximal inhibition (IC50) stood at 0.01 µM. In the case of `CC(C)C[C@@H]1NC(=O)[C@H](Cc2c[nH]c3ccccc23)NC(=O)[C@H](CC(=O)O)NC(=O)[C@H](Cc2ccc(O)cc2)NC(=O)[C@H](Cc2ccccc2)NC(=O)CSC[C@@H](C(=O)NCC(N)=O)NC(=O)[C@H](CO)NC(=O)[C@H](C(C)C)NC(=O)[C@H](CC(C)C)NC(=O)[C@H](CCN)NC(=O)[C@@H](CC(C)C)NC(=O)[C@H](C)N(C)C(=O)[C@H](CCC(=O)O)NC(=O)[C@H](Cc2ccc(-c3ccccc3)cc2)NC1=O` [Compound 1513] ({CH2CO}-FYDWL[Bip]E[NMeA][dL][Dab]LVSCG-NH2; thioether N-14) it was 0.02 µM.

Consider `C#CC[C@H](NC(=O)[C@@H](C)NC(=O)[C@@H]1CSCC(=O)N[C@@H]([C@@H](C)O)C(=O)N[C@@H](Cc2ccc(C(=O)O)cc2)C(=O)N[C@@H](CC(=O)O)C(=O)N[C@@H](Cc2cccc(C)c2)C(=O)N[C@@H](Cc2ccc(C(=O)O)cc2)C(=O)N[C@@H](Cc2ccc(-c3ccccc3)cc2)C(=O)N[C@@H](Cc2ccc(OCC(=O)O)cc2)C(=O)N(C)[C@@H](C)C(=O)N[C@H](CC(C)C)C(=O)N[C@@H](CCN)C(=O)N[C@@H](CC2CCCCC2)C(=O)N[C@@H](C(C)(C)O)C(=O)N[C@@H](CCC(=O)O)C(=O)N1)C(N)=O` [Compound 1947] ({CH2CO}-T[Phe(4-COOH)]D[Phe(3-Me)][Phe(4-COOH)][Bip]Y(Carboxymethyl)[NMeA][dL][Dab][Cha][Val(3-OH)]EC[dA][Pra]-NH2; thioether N-14), for which the IC50 was 0.43 µM. In the case of `CC(C)C[C@@H]1NC(=O)[C@H](Cc2c[nH]c3ccccc23)NC(=O)[C@H](CC(=O)O)NC(=O)[C@H](Cc2ccc(O)cc2)NC(=O)[C@H](Cc2ccccc2)NC(=O)CSC[C@@H](C(=O)NCC(N)=O)NC(=O)[C@H](CO)NC(=O)[C@H](C(C)C)NC(=O)[C@H](CC(C)C)NC(=O)[C@H](CC(N)=O)NC(=O)[C@@H](CO)NC(=O)[C@H](C)N(C)C(=O)[C@H](C(C)C)NC(=O)[C@H](Cc2ccc(-c3ccccc3)cc2)NC1=O` [Compound 1819] ({CH2CO}-FYDWL[Bip]V[NMeA][dS]NLVSCG-NH2; thioether N-14) it was 0.43 µM; in that of `CC(C)C[C@@H]1NC(=O)[C@H](Cc2c[nH]c3ccccc23)NC(=O)[C@H](CC(=O)O)NC(=O)[C@H](Cc2ccncc2)NC(=O)[C@H](CN)NC(=O)CSC[C@@H](C(=O)N[C@@H](C)C(N)=O)NC(=O)[C@H](CO)NC(=O)[C@H](C(C)C)NC(=O)[C@H](CC(C)C)NC(=O)[C@H](CC(N)=O)NC(=O)[C@@H](C)NC(=O)[C@H](C)N(C)C(=O)[C@H](C(C)C)NC(=O)[C@H](Cc2ccc(-c3ccccc3)cc2)NC1=O` [Compound 1561] ({CH2CO}-[Dap][4Pal]DWL[Bip]V[NMeA][dA]NLVSCA-NH2; thioether N-14), 0.03 µM. As to `CCCC[C@@H]1NC(=O)[C@H](Cc2ccc(-c3ccccc3)cc2)NC(=O)[C@H](C(C)C)NC(=O)[C@H](Cc2c[nH]c3ccccc23)NC(=O)[C@H](CC(=O)O)NC(=O)[C@H](Cc2ccc(O)cc2)NC(=O)[C@H](CC(N)=O)NC(=O)CSC[C@@H](C(=O)N[C@@H](C)C(N)=O)NC(=O)[C@H]([C@@H](C)O)NC(=O)[C@H](C(C)C)NC(=O)[C@H](CC(C)C)NC(=O)[C@H](CCN)NC(=O)[C@@H](CC(C)C)NC(=O)[C@H](C)N(C)C1=O` [Compound 1271] ({CH2CO}-NYDWV[Bip][Nle][NMeA][dL][Dab]LVTCA-NH2; thioether N-14), the IC50 worked out at 0.03 µM.

In the case of `Cc1cccc(C[C@@H]2NC(=O)[C@H](CC(=O)O)NC(=O)[C@H](Cc3ccc(OCC(=O)O)cc3)NC(=O)[C@H]([C@@H](C)O)NC(=O)CSC[C@@H](C(N)=O)NC(=O)[C@H](CCC(N)=O)NC(=O)[C@H](C(C)C)NC(=O)[C@H](CC3CCCCC3)NC(=O)[C@H](CC(N)=O)NC(=O)[C@@H](CC(C)C)NC(=O)[C@H](C)N(C)C(=O)[C@H](Cc3ccc(OCC(=O)O)cc3)NC(=O)[C@H](Cc3ccc(-c4ccccc4)cc3)NC(=O)[C@H](Cc3ccc(OCC(=O)O)cc3)NC2=O)c1` [Compound 1677] ({CH2CO}-TY(Carboxymethyl)D[Phe(3-Me)]Y(Carboxymethyl)[Bip]Y(Carboxymethyl)[NMeA][dL]N[Cha]VQC-NH2; thioether N-14), the 50% inhibitory concentration (IC50) came out at 0.16 µM. For the compound `Cc1cccc(C[C@@H]2NC(=O)[C@H](CC(=O)O)NC(=O)[C@H](Cc3ccc(OCC(=O)O)cc3)NC(=O)[C@H]([C@@H](C)O)NC(=O)CSC[C@@H](C(N)=O)NC(=O)[C@H]([C@@H](C)O)NC(=O)[C@H](C(C)C)NC(=O)[C@H](CC3CCCCC3)NC(=O)[C@H](CCN)NC(=O)[C@@H](CC(C)C)NC(=O)[C@H](C)N(C)C(=O)[C@H](Cc3ccc(OCC(=O)O)cc3)NC(=O)[C@H](Cc3ccc(-c4ccccc4)cc3)NC(=O)[C@H](Cc3ccc(OCC(=O)O)cc3)NC2=O)c1` [Compound 1672] ({CH2CO}-TY(Carboxymethyl)D[Phe(3-Me)]Y(Carboxymethyl)[Bip]Y(Carboxymethyl)[NMeA][dL][Dab][Cha]VTC-NH2; thioether N-14), the IC50 amounted to 0.09 µM. As for `CC(C)C[C@@H]1NC(=O)[C@H](Cc2c[nH]c3ccccc23)NC(=O)[C@H](CC(=O)O)NC(=O)[C@H](Cc2ccc(O)cc2)NC(=O)[C@H](Cc2ccccc2)NC(=O)CSC[C@@H](C(=O)NCC(N)=O)NC(=O)[C@H]([C@@H](C)O)NC(=O)[C@H](C(C)C)NC(=O)[C@H](CC(C)C)NC(=O)[C@H](CCN)NC(=O)[C@@H](C)NC(=O)[C@H](C)N(C)C(=O)[C@H](C(C)C)NC(=O)[C@H](Cc2ccc(-c3ccccc3)cc2)NC1=O` [Compound 1477] ({CH2CO}-FYDWL[Bip]V[NMeA][dA][Dab]LVTCG-NH2; thioether N-14), the IC50 was 0.02 µM. For the compound `CC[C@H](C)[C@@H]1NC(=O)[C@H](Cc2ccc(-c3ccccc3)cc2)NC(=O)[C@H](C(C)(C)O)NC(=O)[C@H](Cc2cccc(C)c2)NC(=O)[C@H](CC(=O)O)NC(=O)[C@H](Cc2ccc(O)cc2)NC(=O)[C@H](CC(N)=O)NC(=O)CSC[C@@H](C(=O)N[C@@H](CCN)C(N)=O)NC(=O)[C@H](CCC(=O)O)NC(=O)[C@H](C(C)C)NC(=O)[C@H](CC2CCCCC2)NC(=O)[C@H](CCN)NC(=O)[C@@H](CC(C)C)NC(=O)[C@H](C)N(C)C1=O` [Compound 1697] ({CH2CO}-NYD[Phe(3-Me)][Val(3-OH)][Bip]I[NMeA][dL][Dab][Cha]VEC[Dab]-NH2; thioether N-14), the IC50 was 0.02 µM.

These data come from patent US20240409585A1, “MACROCYCLIC IMMUNOMODULATORS” (priority 2021, published 2024).
